According to patent publication US20190290675A1, “GLYCAN POLYMERS AND RELATED METHODS THEREOF” (priority 2016, published 2019):

Key:
Assay in all cases: single strain growth assay, enzymatically synthesized glycans and parent sugars
Assay type in all cases: cell-based
Conditions in all cases: 0.5% w/v, 37° C., 18-48 hours, anaerobic; OD600 blanked against no glycan or sugar
[1] = system: Clostridium scindens ATCC 35704 “CSC.32”
Protocol: (§1) An in vitro assay was performed to assess the ability of various bacterial strains, including commensals and pathogens of the gastrointestinal tract, to utilize enzymatically synthesized glycans (i.e., glycan polymers) and the sugars from which they were derived as growth substrates. The assay was designed to determine if enzymatically synthesized glycans differ from the sugars from which they are derived in how well they support growth of potentially beneficial or harmful bacterial members of the human microbiome. Bacterial strains were handled at all steps in an anaerobic chamber (AS-580, Anaerobe Systems) featuring a palladium catalyst. The chamber was initially made anaerobic by purging with an anaerobic gas mixture of 5% hydrogen, 5% carbon dioxide and 90% nitrogen and subsequently maintained in an anaerobic state using this same anaerobic gas mixture. Anaerobicity of the chamber was confirmed daily using Oxoid anaerobic indicator strips that change color in the presence of oxygen. All culture media, assay plates, other reagents and plastic consumables were pre-reduced in the anaerobic chamber for at least 24-48 hours prior to contact with bacteria. […] Bacterial isolates were obtained from the American Type Culture Collection (ATCC) and Leibniz Institute DSMZ-German Institute of Microorganisms and Cell Cultures (DSMZ). […] Inocula were prepared by determining the optical density of each culture at 600 nM (OD600) in a Costar 3370 polystyrene 96-well flat-bottom assay plate using a Biotek Synergy 2 plate reader with Gen5 2.0 All-In-One Microplate Reader Software according to manufacturer's protocol, and diluting the cells to OD600 0.01 final in defined and semi-defined media that were prepared without sugars. […]

[2] = system: Dorea formicigenerans ATCC 27755 “DFO.36”
Protocol: as §1

[3] = system: Parabacteroides distasonis ATCC 8503 “PDI.6”
Protocol: as §1

[4] = system: Dorea longicatena DSM 13814 “DLO.76”
Protocol: as §1

[5] = system: Blautia hansenii ATCC 27752 “BHA.20”
Protocol: An in vitro assay was performed to assess the ability of various bacterial strains, including commensals and pathogens of the gastrointestinal tract, to utilize enzymatically synthesized glycans (i.e., glycan polymers) and the sugars from which they were derived as growth substrates. The assay was designed to determine if enzymatically synthesized glycans differ from the sugars from which they are derived in how well they support growth of potentially beneficial or harmful bacterial members of the human microbiome. Bacterial strains were handled at all steps in an anaerobic chamber (AS-580, Anaerobe Systems) featuring a palladium catalyst. The chamber was initially made anaerobic by purging with an anaerobic gas mixture of 5% hydrogen, 5% carbon dioxide and 90% nitrogen and subsequently maintained in an anaerobic state using this same anaerobic gas mixture. Anaerobicity of the chamber was confirmed daily using Oxoid anaerobic indicator strips that change color in the presence of oxygen. All culture media, assay plates, other reagents and plastic consumables were pre-reduced in the anaerobic chamber for at least 24-48 hours prior to contact with bacteria. […] Inocula were prepared by determining the optical density of each culture at 600 nM (OD600) in a Costar 3370 polystyrene 96-well flat-bottom assay plate using a Biotek Synergy 2 plate reader with Gen5 2.0 All-In-One Microplate Reader Software according to manufacturer's protocol, and diluting the cells to OD600 0.01 final in defined and semi-defined media that were prepared without sugars. […]

[6] = system: Bacteroides thetaiotaomicron ATCC 29741 “BTH.8”
Protocol: as §1

SMILES	Growth, CSC.32 [1]	Growth, DFO.36 [2]	Growth, PDI.6 [3]	Growth, DLO.76 [4]	Growth, BHA.20 [5]	Growth, BTH.8 [6]
OC[C@H]1O[C@@H](O[C@@H]2[C@@H](CO)OC(O)(CO)[C@H]2O)[C@H](O)[C@@H](O)[C@H]1O (mixture of isomers) [lactulose]	− (<0.1)	− (<0.1)	++ (0.3-0.7)	− (<0.1)	+++ (>0.7)	+ (0.1-0.3)
OC[C@H]1O[C@H](OC[C@H]2O[C@H](O[C@]3(CO)O[C@H](CO)[C@@H](O)[C@@H]3O)[C@H](O)[C@@H](O)[C@@H]2O)[C@H](O)[C@@H](O)[C@H]1O [raffinose]	− (<0.1)	− (<0.1)	+++ (>0.7)	− (<0.1)	++ (0.3-0.7)	− (<0.1)
OC[C@H]1O[C@@](CO)(O[C@H]2O[C@H](CO)[C@@H](O)[C@H](O)[C@H]2O)[C@@H](O)[C@@H]1O [sucrose]	− (<0.1)	− (<0.1)	++ (0.3-0.7)	+++ (>0.7)	− (<0.1)	+++ (>0.7)
